Key:
Experiment in all cases: Disk diffusion assay (zone of inhibition)
Format in all cases: cell-based, Staphylococcus aureus
Details in all cases: 20 μl of 1.25 mg/ml in 4% P80/Span 80 (1:1), calcium alginate swabs, dried overnight, duplicate
MSSA S815247 = system: MSSA S815247
Method: (§1) Oritavancin powder was dissolved in freshly-prepared solutions of the indicated excipients at concentrations of 0.625, 1.25, 2.5, 5, and 10 mg/ml (adjusted for potency based on lot 875561L00 purity of 83.1%) by vortexing for a minimum of 5 minutes. Oritavancin solutions in the various excipients, while not visually clear, were free from any apparent particulates as assessed visually. Sterile Oxoid blank disks were impregnated with 20 μl of these oritavancin solutions, resulting in oritavancin disk loads ranging from 12.5 to 200 μg. Unless indicated otherwise, disks were allowed to dry overnight at room temperature prior to use.
(§2) Bacterial suspensions from isolated colonies on overnight cation-adjusted Mueller Hinton agar plates were prepared in sterile saline and adjusted to an optical density of 0.1 at 600 nm Standard cation-adjusted Mueller Hinton agar plates (90 mm diameter) were seeded with bacterial suspensions by initially swabbing the center of plate then moving outward. Swabbing was continued at a right angle and then at an oblique angle to the first and second swabs. Disks were placed upon the seeded plates with sterile forceps. Plates were then incubated overnight at 37° C. and inhibition zone diameters were measured with a ruler and reported in millimeters.

MRSA U260847 = system: MRSA U260847
Method: as §1, §2

MRSA Q670607 = system: MRSA Q670607
Method: as §1, §2

MSSA U933236 = system: MSSA U933236
Method: as §1, §2

MSSA S815246 = system: MSSA S815246
Method: as §1, §2

MRSA Q141067 = system: MRSA Q141067
Method: as §1, §2

MRSA V257345 = system: MRSA V257345
Method: as §1, §2

MSSA U781969 = system: MSSA U781969
Method: as §1, §2

MSSA T811355 = system: MSSA T811355
Method: as §1, §2

MRSA U933237 = system: MRSA U933237
Method: as §1, §2

[1] = Staphylococcus aureus, MSSA, read-out: Inhibition zone diameter
[2] = Staphylococcus aureus, MRSA, read-out: Inhibition zone diameter

CN[C@H](CC(C)C)C(=O)N[C@H]1C(=O)N[C@@H](CC(N)=O)C(=O)N[C@H]2C(=O)N[C@H]3C(=O)N[C@H](C(=O)N[C@H](C(=O)O)c4cc(O)cc(O)c4-c4cc3ccc4O)[C@H](O[C@H]3C[C@](C)(N)[C@@H](O)[C@H](C)O3)c3ccc(c(Cl)c3)Oc3cc2cc(c3O[C@@H]2O[C@H](CO)[C@@H](O)[C@H](O)[C@H]2O[C@H]2C[C@](C)(NCc3ccc(-c4ccc(Cl)cc4)cc3)[C@@H](O)[C@H](C)O2)Oc2ccc(cc2Cl)[C@H]1O [oritavancin, N-(4-(4-chlorophenyl)benzyl)A82846B]
Inhibition zone diameter (MSSA S815247): 21 mm
zone of inhibition at 1250 µg/mL (MSSA S815247; [1]): 20 mm
Inhibition zone diameter (MRSA U260847): 22 mm
zone of inhibition at 1250 µg/mL (MRSA U260847; [2]): 21 mm
Inhibition zone diameter (MRSA Q670607): 22 mm
zone of inhibition at 1250 µg/mL (MRSA Q670607; [2]): 21 mm
Inhibition zone diameter (MSSA U933236): 22 mm
zone of inhibition at 1250 µg/mL (MSSA U933236; [1]): 21 mm
Inhibition zone diameter (MSSA S815246): 22 mm
zone of inhibition at 1250 µg/mL (MSSA S815246; [1]): 21 mm
Inhibition zone diameter (MRSA Q141067): 22 mm
zone of inhibition at 1250 µg/mL (MRSA Q141067; [2]): 21 mm
Inhibition zone diameter (MRSA V257345): 22 mm
zone of inhibition at 1250 µg/mL (MRSA V257345; [2]): 21 mm
Inhibition zone diameter (MSSA U781969): 23 mm
zone of inhibition at 1250 µg/mL (MSSA U781969; [1]): 22 mm
Inhibition zone diameter (MSSA T811355): 22 mm
zone of inhibition at 1250 µg/mL (MSSA T811355; [1]): 21 mm
Inhibition zone diameter (MRSA U933237): 22 mm
zone of inhibition at 1250 µg/mL (MRSA U933237; [2]): 21 mm

Reference: US8815535B2, “Disk diffusion assay for oritavancin” (The Medicines Company, priority 2011, dated 2014)
